Experimental data published in paper PMC9612383, “Biological Activity of NHC-Gold-Alkynyl Complexes Derived from 3-Hydroxyflavones” (Pharmaceutics, 2022).
Read-outs that look alike come from different tables or passages of the source.

Experiments:
Caco-2 cells [1] = assay: MTT antiproliferative assay; assay type: cell-based, Human; conditions: for IC50: Caco-2 cell line, 72 h incubation, mean ± SE
Experimental: Human colorectal adenocarcinoma Caco-2 cells were kindly provided by Dr. Edith Brot-Laroche (Universite Pierre et Marie Curie-Paris 6 UMR S872, Les Cordeliers, France) and were maintained in a humidified atmosphere of 5% CO2 at 37 °C in Dulbecco’s Modified Eagles medium (DMEM) (Gibco Invitrogen, Paisley, UK) supplemented with 20% fetal bovine serum, 1% non-essential amino acids, 1% penicillin (1000 U/mL), 1% streptomycin ([…]) and 1% amphotericin (250 U/mL). For treatment, gold complexes were initially dissolved in DMSO to a concentration of 20 mM and then diluted on cell culture without fetal bovine serum to the required work concentrations, which was added 24 h post-seeding. Then, cells were incubated at 37 °C for the required time for each assay.
Cell viability was determined with the 3-(4,5-dimethyl-2-thiazoyl)-2,5-diphenyltetrazolium bromide (MTT) assay as previously described by Mármol et al.. For IC50 calculation, cells were grown in 96-well plates at a density of 4000 cells per well and incubated overnight at standard culture conditions. Then, cells were exposed 72 h to 0–20 μM of each gold complex and changes in absorbance were converted into percentage of growth inhibition in comparison to negative control (DMSO. Absorbance was measured with SPECTROstar Nano (BMG Labtech).

[2] = n-Octanol-water distribution coefficient, shake-flask; assay type: physicochemical; conditions: for LogP7.4 (distribution coefficient): n-octanol / buffered aqueous solution pH 7.4
Experimental: The n-octanol-water coefficients of the complexes were determined as previously reported using a shake-flask method. Buffered-saline distilled water (100 mL, phosphate buffer [PO4^3−] = 10 mM, [NaCl] = 0.15 M, pH 7.4) and n-octanol (100 mL) were shaken for 72 h to allow saturation of both phases. Approximately 1 mg of the complexes was dissolved in 5 mL of the aqueous phase and 5 mL of the organic phase were added, mixing for 10 min. The resulting emulsion was centrifuged to separate the phases. The concentration of the compounds in each phase was determined using UV absorbance spectroscopy. LogP was defined as log{[compound(organic)]/[compound(aqueous)]}.

[3] = test system: panel of Gram-positive and Gram-negative strains; assay: Disk diffusion method, whole panel (summary in words); assay type: cell-based; conditions: for antibacterial effect (in words): whole panel, Gram-positive and Gram-negative strains
Experimental: (§1) To evaluate the antibacterial potential of gold derivatives, […] bacterial strains were selected: E. coli, P. aeruginosa, S. enterica, E. faecalis, L. monocytogenes, S. epidermidis, S. aureus. Dis diffusion assay was performed following Clinical & Laboratory Standards Institute (CLSI) recommendations. Active cultures (0.5 McFarland) from all strains were spread onto Mueller–Hinton Agar (MHA, Oxoid, Basingstoke, UK) and disks impregnated with 10 µL of each gold complex or control (DMSO for negative control, phenol for positive control) were placed. Plates were and incubated for 22 h ± 2 h at 37 °C ± 1 °C and then the diameter of the inhibition zone was determined.
Given that NHC-gold derivatives might display antibacterial activity, we evaluated the antibacterial effect of the complexes toward a panel of Gram-positive and Gram-negative strains using the disk diffusion method. The selected strains are human pathogen or commensal bacteria and the results are summarized on Table 1.

E. faecalis = assay: Disk diffusion test; assay type: cell-based; conditions: for Inhibition Zone: complex 5 μg, 24 h incubation, diameter including disk (6 mm)
Experimental: (§2) To evaluate the antibacterial potential of gold derivatives, six bacterial strains were selected: E. coli, P. aeruginosa, S. enterica, E. faecalis, L. monocytogenes, S. epidermidis, S. aureus. Dis diffusion assay was performed following Clinical & Laboratory Standards Institute (CLSI) recommendations. […] Plates were and incubated for 22 h ± 2 h at 37 °C ± 1 °C and then the diameter of the inhibition zone was determined.

L. monocytogenes = assay: Disk diffusion test; assay type: cell-based; conditions: for Inhibition Zone: complex 5 μg, 24 h incubation, diameter including disk (6 mm)
Experimental: as §2

S. epidermidis = assay: Disk diffusion test; assay type: cell-based; conditions: for Inhibition Zone: complex 5 μg, 24 h incubation, diameter including disk (6 mm)
Experimental: as §2

S. aureus 13565 = assay: Disk diffusion test; assay type: cell-based; conditions: for Inhibition Zone: complex 5 μg, 24 h incubation, diameter including disk (6 mm)
Experimental: as §2

S. aureus 2593 = assay: Disk diffusion test; assay type: cell-based; conditions: for Inhibition Zone: complex 5 μg, 24 h incubation, diameter including disk (6 mm)
Experimental: as §2

P. aeruginosa = assay: Disk diffusion test; assay type: cell-based; conditions: for Inhibition Zone: complex 5 μg, 24 h incubation, diameter including disk (6 mm)
Experimental: as §2

E. coli 13216 = assay: Disk diffusion test; assay type: cell-based
Experimental: as §2

E. coli 8739 = assay: Disk diffusion test; assay type: cell-based
Experimental: as §2

S. enterica 14028 = assay: Disk diffusion test; assay type: cell-based; conditions: Salmonella enterica, 14028, 24 h, read-out: Inhibition Zone
Experimental: as §2

E. coli 25922 = assay: Disk diffusion test; assay type: cell-based; conditions: Escherichia coli, 25922, 24 h, read-out: Inhibition Zone
Experimental: as §2

S. enterica 25928 = assay: Disk diffusion test; assay type: cell-based; conditions: Salmonella enterica, 25928; positive control 5.35 mg, 24 h incubation; diameter including disk (6 mm)
Experimental: as §1

[4] = test system: thioredoxin reductase enzyme; parameters: method as in PMID 31546196; conditions: earlier work of the authors; cited from earlier work
Caco-2 cells [5] = test system: Caco-2 cells; parameters: method as in PMID 31546196; conditions: earlier work of the authors; cited from earlier work
Caco-2 cells [6] = test system: Caco-2 cells; parameters: method as in PMID 31546196; conditions: cited from earlier work
[7] = parameters: method as in PMID 31546196; conditions: cited from earlier work
[8] = complex 5 μg, 24 h incubation, diameter including disk (6 mm)

CC(C)c1cccc(C(C)C)c1-n1cc[n+](-c2c(C(C)C)cccc2C(C)C)[c]1[Au-][C]#CCOc1c(-c2ccccc2)oc2ccccc2c1=O [2a, [Au(La)(IPr)] (R = H; IPr = C27H38N2)]
fold lower IC50 of 2a than homologue 1a (Caco-2 cells [1]; Caco-2, 72 h, p < 0.05): 2.65 times
IC50 (Caco-2 cells [1]): 16.3 ± 2.04 µM
lipophilic character (in words) ([2]; from log P, pH 7.4): balanced hydrophilic-lipophilic character
LogP7.4 (distribution coefficient) [2]: 0.42

CC(=O)OC[C@H]1O[C@@H]([S-])[C@H](OC(C)=O)[C@@H](OC(C)=O)[C@@H]1OC(C)=O.CCP(CC)CC.[Au+] [Auranofin, 2,3,4,6-tetraacetyl-1-thio-β-D-glucopyranosato-S-triethylphosphane gold(I), reference compound]
IC50 (Caco-2 cells [1]): 1.8 ± 0.1 µM
LogP7.4 (distribution coefficient) [2]: −2.53

CC(C)c1cccc(C(C)C)c1-n1cc[n+](-c2c(C(C)C)cccc2C(C)C)[c]1[Au-][C]#CCOc1c(-c2ccc(Cl)cc2)oc2ccccc2c1=O [2c, [Au(Lc)(IPr)] (R = Cl; IPr = C27H38N2)]
IC50 (Caco-2 cells [1]): 46.1 ± 22.5 µM
LogP7.4 (distribution coefficient) [2]: 1.11
antibacterial effect on Gram-negative strains (in words) [3]: inactive against Gram-negative strains
antibacterial effect on Gram-positive strains (in words) [3]: able to inhibit the growth of all Gram-positive bacterial strains
Inhibition Zone (E. faecalis): 10.25 ± 1.41 mm
Inhibition Zone (L. monocytogenes): 15.33 ± 0.47 mm
Inhibition Zone (S. epidermidis): 18.06 ± 2.04 mm
Inhibition Zone (S. aureus 13565): 12.19 ± 0.88 mm
Inhibition Zone (S. aureus 2593): 10.49 ± 1.13 mm
Inhibition Zone (P. aeruginosa): -

CC(C)c1cccc(C(C)C)c1-n1ccn(-c2c(C(C)C)cccc2C(C)C)[c]1=[Au][Cl] [[AuCl(IPr)], reference compound]
IC50 (Caco-2 cells [1]): 9.09 ± 3.22 µM

Oc1ccccc1 [Phenol, reference compound]
zone of inhibition at 5350 µg/disc (E. faecalis; Enterococcus faecalis, 24 h, read-out: Inhibition Zone): 13.5 ± 2.12 mm
zone of inhibition at 5350 µg/disc (L. monocytogenes; Listeria monocytogenes, 24 h, read-out: Inhibition Zone): 16.58 ± 0.12 mm
zone of inhibition at 5350 µg/disc (S. epidermidis; Staphylococcus epidermidis, 24 h, read-out: Inhibition Zone): 22.7 ± 4.49 mm
zone of inhibition at 5350 µg/disc (E. coli 13216; Escherichia coli, 13216, 24 h, read-out: Inhibition Zone): 20.7 ± 2.97 mm
zone of inhibition at 5350 µg/disc (S. aureus 13565; Staphylococcus aureus, 13565, 24 h, read-out: Inhibition Zone): 17.2 ± 3.38 mm
zone of inhibition at 5350 µg/disc (S. aureus 2593; Staphylococcus aureus, 2593, 24 h, read-out: Inhibition Zone): 12.1 ± 0.73 mm
zone of inhibition at 5350 µg/disc (E. coli 8739; Escherichia coli, 8739, 24 h, read-out: Inhibition Zone): 22.7 ± 1.37 mm
zone of inhibition at 5350 µg/disc (S. enterica 14028): 27.8 ± 1.11 mm
zone of inhibition at 5350 µg/disc (P. aeruginosa; Pseudomonas aeruginosa, 24 h, read-out: Inhibition Zone): 30.5 ± 1.45 mm
zone of inhibition at 5350 µg/disc (E. coli 25922): 23.4 ± 1.26 mm
zone of inhibition at 5350 µg/disc (S. enterica 25928): 19.2 ± 0.42 mm

COc1ccc(-c2oc3ccccc3c(=O)c2OCC#[C][Au-][c]2n(C)cc[n+]2C)cc1 [1d, [Au(Ld)(IMe)] (R = OMe; IMe = C5H10N2)]
IC50 (Caco-2 cells [1]): 16.3 ± 1.04 µM
LogP7.4 (distribution coefficient) [2]: 0.22
antibacterial effect on Gram-negative strains (in words) [3]: inactive against Gram-negative strains
antibacterial effect on Gram-positive strains (in words) [3]: able to inhibit the growth of all Gram-positive bacterial strains
Inhibition Zone (E. faecalis): 9.47 ± 1.67 mm
Inhibition Zone (L. monocytogenes): 14.25 ± 1.06 mm
Inhibition Zone (S. epidermidis): 17.23 ± 0.87 mm
Inhibition Zone (S. aureus 13565): 11.86 ± 0.20 mm
Inhibition Zone (S. aureus 2593): 9.70 ± 0.02 mm
Inhibition Zone (P. aeruginosa): -

Cn1cc[n+](C)[c]1[Au-][C]#CCOc1c(-c2ccc(Cl)cc2)oc2ccccc2c1=O [1c, [Au(Lc)(IMe)] (R = Cl; IMe = C5H10N2)]
IC50 (Caco-2 cells [1]): 15.1 ± 3.04 µM
LogP7.4 (distribution coefficient) [2]: 1.96
antibacterial effect (in words) [3]: no antibacterial effect

O=c1c(OCC#[C][Au][PH](c2ccccc2)(c2ccccc2)c2ccccc2)c(-c2ccc(Br)cc2)oc2ccccc12 [[Au(L2b)PPh3]]
thioredoxin reductase inhibition (in words) [4]: able to inhibit thioredoxin reductase enzyme
ROS levels (in words) (Caco-2 cells [5]): induce an increase in ROS levels

Cn1ccn(C)[c]1=[Au-2][Cl] [[AuCl(IMe)], reference compound]
IC50 (Caco-2 cells [1]): > 100 µM
antiproliferative effect (in words) (Caco-2 cells [1]; Caco-2 cells): ineffective

COc1ccc(-c2oc3ccccc3c(=O)c2OCC#[C][Au-][c]2n(-c3c(C(C)C)cccc3C(C)C)cc[n+]2-c2c(C(C)C)cccc2C(C)C)cc1 [2d, [Au(Ld)(IPr)] (R = OMe; IPr = C27H38N2)]
IC50 (Caco-2 cells [1]): 48.2 ± 14.6 µM
LogP7.4 (distribution coefficient) [2]: 3.40
antibacterial effect (in words) [3]: no antibacterial effect

O=c1c(OCC#[C][Au][PH](c2ccccc2)(c2ccccc2)c2ccccc2)c(-c2ccc(Cl)cc2)oc2ccccc12 [[Au(L2c)PPh3]]
IC50 (Caco-2 cells [6]): 5.34 ± 0.05 µM
distribution coefficient value [7]: 1.17

Cn1cc[n+](C)[c]1[Au-][C]#CCOc1c(-c2ccccc2)oc2ccccc2c1=O [1a, [Au(La)(IMe)] (R = H; IMe = C5H10N2)]
IC50 (Caco-2 cells [1]): 43.3 ± 5.06 µM
LogP7.4 (distribution coefficient) [2]: 0.34
antibacterial effect (in words) [3]: no antibacterial effect

CC(C)c1cccc(C(C)C)c1-n1cc[n+](-c2c(C(C)C)cccc2C(C)C)[c]1[Au-][C]#CCOc1c(-c2ccc(Br)cc2)oc2ccccc2c1=O [2b, [Au(Lb)(IPr)] (R = Br; IPr = C27H38N2)]
IC50 (Caco-2 cells [1]): 53.9 ± 22.7 µM
LogP7.4 (distribution coefficient) [2]: 1.47
antibacterial effect (in words) [3]: able to interfere with the development of both Gram positive and Gram negative strains
Inhibition Zone (E. faecalis): 12.1 ± 0.99 mm
Inhibition Zone (L. monocytogenes): 17.17 ± 0.24 mm
Inhibition Zone (S. epidermidis): 20.95 ± 0.91 mm
Inhibition Zone (E. coli 13216; [8]): 8.10 ± 0.60 mm
Inhibition Zone (S. aureus 13565): 14.03 ± 0.17 mm
Inhibition Zone (S. aureus 2593): 12.79 ± 1.11 mm
Inhibition Zone (E. coli 8739; [8]): 8.97 ± 0.49 mm
Inhibition Zone (P. aeruginosa): -
